The values below come from US20260256716A1, “COMPOSITIONS AND METHODS OF USE THEREOF” (Board of Supervisors of Louisiana State University and …, priority 2023, published 2026).

Structures are written as SMILES.

The subject of experiment [1] is mitofusin2 and TOMM20. Put plainly: Western blot of mitofusin2 and TOMM20 in ARPE-19 cells. In kind it is cell-based, human. The settings on record: all concentrations; 48 h post treatment; DMEM 7% FCS. The text has this:
Representative 5-HT2A Receptor Agonist, R-DOI, Increases Mitochondrial Biogenesis and Quality by Inducing Mitochondrial Fusion at low nM concentrations thereby reversing adverse processes that underlie development and progression of the Pathophysiology of Age-Associated Ocular and Neurodegenerative Diseases. Consistent with the Maintenance of Functional Mitochondria and Mitochondrial Health, Serotonin 2A Receptor Agonism, Like with R-DOI, Increases Enzymatic BioMarkers of Mitochondrial Fusion (Mitofusin2) and Biogenesis (TOMM20). ARPE-19 cells were grown in DMEM 7% FCS containing the indicated concentrations of R-DOI. 48 h post treatment, cell samples were lysed and normalized prior to running western blots to evaluate mitofusin2 and TOMM20 protein expression. […] Mitofusion2 functions to regulate mitochondrial fusion. TOMM20 imports proteins through the outer membrane and is a marker of biogenesis and number.
A general note: Immunoblotting shows a protein as a band on a membrane.

The test system of experiment [2] is ARPE-19 cells. Put plainly: Hyperglycemia induced SA-β-Gal cellular senescence in ARPE-19 cells (HPLM). In kind it is cell-based, human. The settings on record: 10 nM; HPLM with 5, 10, 20 or 30 mM glucose, 72 hours. Here is the method:
Consistent with Retinal Deterioration by Glucose-Induced Cellular Senescence in the Diabetic Population, Hyperglycemic conditions induce increased disease promoting Cellular Senescence that is abrogated by low nM concentrations of the Representative 5-HT2A Receptor Agonist, R-DOI Returning to Base-line Homeostatic Levels. ARPE-19 cells in physiologically relevant media (HPLM; 7% FCS) were seeded overnight prior to being replaced with starvation media (HPLM 0.5% FCS) containing 10 nM R-DOI. After overnight incubation in starvation media, cells were swapped to media containing diabetic blood glucose levels (HPLM 7% FCS containing 5 mM, 10 mM, 20 mM, or 30 mM glucose) for 72-hours. After the 72-hour incubation, cells were fixed and stained for SA-β-Gal for 6-hours. Cells nuclei were then stained with DAPI for total-cell enumeration. SA-β-Gal positive cells, and total cells per frame, were quantified by microscopy. Pathological/diabetic glucose concentrations induce cellular senescence. 5-HT2A receptor agonism alleviates glucose-induced senescence at diabetic blood glucose levels. […]
Effects of specific phenethylamine 5-HT2A receptor agonists on reduction of Hyperglycemia induced Disease Promoting Cellular Senescence: Inhibition of Cell Senescence and Disease Processes are Drug and Dose Dependent. […] SA-3-Gal positive cells, and total cells per frame, were quantified by microscopy. For each 5-HT2A agonist assessed, the % of senescent cells is expressed relative to the hyperglycemic control. […]
Inhibition of Cell Senescence and Disease Processes are Drug and Dose Dependent. […] SA-β-Gal positive cells, and total cells per frame, were quantified by microscopy. For each 5-HT2A agonist assessed, the % of senescent cells is expressed relative to the hyperglycemic control. […]

Experiment [3] deals with NAD synthesis and salvage. As to the kind of experiment: RT-PCR of NAD synthesis and salvage pathways / NAD levels. Type of experiment: cell-based.
Experiment [4] relates to ARPE cells. As to the kind of experiment: Mitochondrial biomass and potential (MitoTracker staining / flow cytometry) in ARPE cells. In kind it is cell-based, human. The following applies: 10 fold dilutions 100 nM to 0.001 nM; 48 hours. As to the method:
Representative 5-HT2A Receptor Agonist, R-DOI, Increases Mitochondrial Biogenesis and Function at low nM to sub nanomolar concentrations thereby reversing adverse processes that underlie development and progression of the Pathophysiology of Age-Associated Ocular and Neurodegenerative Diseases. ARPE cells were plated and treated with 10 fold dilutions of R-DOI from 100 nM to 0.001 nM. 48 hours post treatment, mitochondrial biomass was assessed either by staining for mitochondria using mitotracker (green, left panel) or via flow cytometry using MitoTracker Red CMOXROS that assesses both mitochondrial biomass and mitochondrial potential.
(In general: Flow cytometry measures light scatter and fluorescence of single cells or particles in a stream.)

For experiment [5], the system named is ARPE cells. As to the kind of experiment: Mitochondrial function and ATP production by Seahorse in ARPE cells. The settings on record: 10 fold dilutions 100 nM to 0.001 nM; 48 hours. Type of experiment: cell-based, human. As to the method:
Representative 5-HT2A Receptor Agonist, R-DOI Increases Mitochondrial Function And ATP Production at low nM and sub nanomolar concentrations thereby reversing adverse processes that underlie development and progression of the Pathophysiology of Age-Associated Ocular and Neurodegenerative Diseases. ARPE cells were plated and treated with 10 fold dilutions of R-DOI from 100 nM to 0.001 nM. 48 hours post treatment, mitochondrial function and ATP production was assessed by Seashorse.

As for `COc1cc(C[C@@H](C)N)c(OC)cc1I` (single isomer, unassigned) [R-DOI, R enantiomer 2,5-Dimethoxy-4-iodoamphetamine], in experiment [1], the “Mitofusin 2 protein expression” value is reported as “increased expression of Mitofusin 2” and the “TOMM20 protein expression (mitochondrial biomass)” value is listed as “increased mitochondrial biomass (TOMM20)”. The “hyperglycemia induced cellular senescence (SA-β-Gal positive cells)” value in experiment [2] is recorded as “abrogated”. For the same compound, the “NAD levels / NAD synthesis and salvage pathways” value in experiment [3] (higher doses) is “causes downregulation of these pathways and decreased NAD levels”. Besides, the “NAD levels / NAD synthesis and salvage pathways” value in experiment [3] (low dose) is reported as “increases protective NAD levels”. Further, in experiment [4], the “mitochondrial biomass and mitochondrial potential” value was “increased both mitochondrial biomass and potential”. Also, the “ATP production and mitochondrial respiration” value in experiment [5] was “increased ATP production and mitochondrial respiration”.
